Experiments:
[1] = target: human PDE9A (Homo sapiens (Human), UniProt O76083); conditions: concentrations of up to 100 micromolar (μM); cited from earlier work
[2] = target: Murine PDE9A (Mus musculus (Mouse), UniProt O70628); conditions: cited from earlier work
[3] = target: PDE1C (Homo sapiens (Human), UniProt Q14123); test: PDE1C assay (SPA, analogue to the PDE9A2 assay); type: biochemical; conditions: ratio PDE1C IC50 / PDE9A2 IC50
Text: The reaction can be stopped by applying the same inhibitor than the one that is outlined above (1-(2-Chlorophenyl)-6-[(2R)-3,3,3-trifluoro-2-methyl-propyl]-1,5-dihydro-4H-pyrazolo[3,4-d]pyrimidine-4-one).
(§1) IC50 can be calculated with GraphPadPrism or other suited software setting the positive control as 100 and the negative control as 0. For calculation of IC50 dilutions of the test compounds (substrates) are to be selected and tested following the aforementioned protocol.

[4] = target: human PDE9A2 (Homo sapiens (Human), UniProt O76083); test: PDE9A2 enzymatic activity assay (scintillation proximity assay); type: biochemical
Description: As enzyme source, lysate (PBS with 1% Triton X-100 supplemented with protease inhibitors, cell debris removed by centrifugation at 13.000 rpm for 30 min) of SF 9 cell expressing the human PDE9A2 was used. The total protein amount included in the assay varied upon infection and production efficacy of the SF9 cells and lay in the range of 0.1-100 ng.
The assays were run in 384-well format. The test reagents as well as the enzyme and the substrate were diluted in assay buffer. The assay buffer contained 50 mM Tris, 8.3 mM MgCl2, 1.7 mM EGTA, 0.1% BSA, 0.05% Tween 20; the pH of assay buffer was adjusted to 7.5.
The activity of the positive control (minus the negative control=background) is set to 100% and activity in the presence of test compound is expressed relative to these 100%.
as §1

Sequence of human PDE9A (O76083 whole entry): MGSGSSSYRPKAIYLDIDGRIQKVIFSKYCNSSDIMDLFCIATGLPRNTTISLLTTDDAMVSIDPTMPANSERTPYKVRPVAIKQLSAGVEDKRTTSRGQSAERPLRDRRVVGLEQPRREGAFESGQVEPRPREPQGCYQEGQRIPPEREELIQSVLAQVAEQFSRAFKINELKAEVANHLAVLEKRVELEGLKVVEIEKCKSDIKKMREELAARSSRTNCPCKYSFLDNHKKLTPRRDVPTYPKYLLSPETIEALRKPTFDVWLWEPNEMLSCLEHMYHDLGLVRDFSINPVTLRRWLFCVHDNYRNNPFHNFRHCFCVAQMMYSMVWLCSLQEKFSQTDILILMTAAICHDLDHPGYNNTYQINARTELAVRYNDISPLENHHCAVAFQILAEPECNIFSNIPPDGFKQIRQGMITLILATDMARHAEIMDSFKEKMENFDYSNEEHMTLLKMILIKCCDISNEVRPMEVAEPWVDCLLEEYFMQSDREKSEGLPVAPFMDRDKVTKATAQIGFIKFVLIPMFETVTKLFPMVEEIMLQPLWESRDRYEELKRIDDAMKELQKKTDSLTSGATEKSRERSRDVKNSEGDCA
Sequence of human PDE9A2 (O76083 other isoform, or with tags, fused parts or gaps): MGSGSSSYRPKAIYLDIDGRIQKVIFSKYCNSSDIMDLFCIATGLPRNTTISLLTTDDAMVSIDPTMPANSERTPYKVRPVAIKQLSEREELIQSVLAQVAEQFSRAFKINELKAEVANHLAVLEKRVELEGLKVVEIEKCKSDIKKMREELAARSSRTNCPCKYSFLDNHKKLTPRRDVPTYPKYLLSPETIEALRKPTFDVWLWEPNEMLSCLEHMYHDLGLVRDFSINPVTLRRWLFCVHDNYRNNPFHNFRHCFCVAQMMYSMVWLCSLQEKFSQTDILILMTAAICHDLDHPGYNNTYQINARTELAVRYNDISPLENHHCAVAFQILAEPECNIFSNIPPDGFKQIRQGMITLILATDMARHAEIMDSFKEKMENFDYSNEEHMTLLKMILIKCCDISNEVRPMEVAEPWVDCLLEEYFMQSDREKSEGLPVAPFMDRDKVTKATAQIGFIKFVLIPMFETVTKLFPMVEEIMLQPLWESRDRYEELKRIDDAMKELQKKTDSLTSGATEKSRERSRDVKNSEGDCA
Sequence of Murine PDE9A (O70628 whole entry): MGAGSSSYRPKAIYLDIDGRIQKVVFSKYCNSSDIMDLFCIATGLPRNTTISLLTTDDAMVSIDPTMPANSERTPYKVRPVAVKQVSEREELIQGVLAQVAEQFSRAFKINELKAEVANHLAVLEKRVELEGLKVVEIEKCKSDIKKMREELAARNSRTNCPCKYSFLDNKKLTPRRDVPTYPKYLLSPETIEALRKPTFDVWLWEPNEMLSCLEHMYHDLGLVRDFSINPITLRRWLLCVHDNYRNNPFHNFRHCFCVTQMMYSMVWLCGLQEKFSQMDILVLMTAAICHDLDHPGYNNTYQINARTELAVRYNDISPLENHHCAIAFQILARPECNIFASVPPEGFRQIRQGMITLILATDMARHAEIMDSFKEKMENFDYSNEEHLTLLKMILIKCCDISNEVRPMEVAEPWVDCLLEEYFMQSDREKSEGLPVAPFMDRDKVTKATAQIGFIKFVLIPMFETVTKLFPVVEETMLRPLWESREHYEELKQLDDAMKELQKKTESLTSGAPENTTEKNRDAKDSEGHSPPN

Structure (SMILES) | inhibition on the isolated enzyme [1] | other results
CCOC(=O)C1=C[C@]2(CC)CCCN3CCc4c(n1c1ccccc41)[C@@H]32 [vinpocetine] | no inhibition | 
OCCN(CCO)c1nc(N2CCCCC2)c2nc(N(CCO)CCO)nc(N3CCCCC3)c2n1 [dipyridamole] | no inhibition | 
CC(C)Cn1c(=O)n(C)c(=O)c2[nH]cnc21 [IBMX] | no inhibition | inhibition of murine PDE9A ([2]; concentrations below 200 micromolar): not inhibited
CCCOc1ccccc1-c1nc2nn[nH]c2c(=O)[nH]1 [zaprinast] |  | IC50 ([2]; murine PDE9A): 29 µM
CC(=O)Nc1ccc(-c2c[nH]c(=O)cn2)cc1 [SKF94120] | no inhibition | 
COc1ccc(C2CNC(=O)C2)cc1OC1CCCC1 (stereo not shown) [rolipram] | no inhibition | 
CC(C)(C)c1cccc(-c2ccccc2Cc2nc3c(cnn3C3CCOCC3)c(=O)[nH]2)n1 [Example 259] |  | S: selectivity values [= (IC50 for PDE1C inhibition)/(IC50 for PDE9A2 inhibition)] [3]: 942; inhibition at 10 µM ([4]; PDE9A2, 10 microM test compound, read-out: I % (at 10 microM): inhibition at 10 micromolar concentration): 102%; IC50 ([4]; human PDE9A2, cGMP 20 nanomolar, read-out: IC50 values for PDE9A2 inhibition): 0.003 µM

— patent US8623901B2, “Compounds for the treatment of CNS disorders” (Boehringer Ingelheim International GmbH, priority 2009, dated 2014)
